Test results from ChEMBL document CHEMBL3044925, “Synthesis of piperazino and morpholino derivatives of aryloxypropane with potential analgesic and possible antimigraine activities” (Med Chem Res, 2011).

Tests used:
[1] = system: Mus musculus; assay: […] activity in ip dosed Mus musculus MFI (mouse) assessed as inhibition of PBQ-induced writhing administered 1.5 hr prior to PBQ-challenge measured after 10 min; format: functional; conditions: read-out: MED
[2] = system: Mus musculus; assay: […] activity in Mus musculus MFI (mouse) assessed as inhibition of PBQ-induced writhing at 50 mg/kg, ip administered 1.5 hr prior to PBQ-challenge measured after 10 min relative to aspirin; format: functional; conditions: route intraperitoneal
[3] = system: Mus musculus; assay: Neurotoxicity against Mus musculus MFI (mouse) assessed as muscle twitching at 90 mg/kg, ip; format: toxicity, organism-based, Muscle tissue; design: dose 90 mg/kg, route intraperitoneal; conditions: in vivo
[4] = system: Mus musculus; assay: Neurotoxicity against Mus musculus MFI (mouse) assessed as epilepsy at 135 mg/kg, ip; format: toxicity, organism-based; design: dose 135 mg/kg, route intraperitoneal; conditions: in vivo
[5] = system: Mus musculus; assay: Neurotoxicity against Mus musculus MFI (mouse) assessed as muscle twitching at 50 mg/kg, ip; format: toxicity, organism-based, Muscle tissue; design: dose 50 mg/kg, route intraperitoneal; conditions: in vivo
[6] = system: Mus musculus; assay: Neurotoxicity against Mus musculus MFI (mouse) assessed as epilepsy at 90 mg/kg, ip; format: toxicity, organism-based; design: dose 90 mg/kg, route intraperitoneal; conditions: in vivo
[7] = system: Mus musculus; assay: Neurotoxicity against Mus musculus MFI (mouse) assessed as skeletal muscle incoordination at 50 mg/kg, ip; format: toxicity, organism-based, Muscle tissue; design: dose 50 mg/kg, route intraperitoneal; conditions: in vivo
[8] = system: Mus musculus; assay: Neurotoxicity against Mus musculus MFI (mouse) assessed as muscle twitching at 135 mg/kg, ip; format: toxicity, organism-based, Muscle tissue; design: dose 135 mg/kg, route intraperitoneal; conditions: in vivo
[9] = system: Mus musculus; assay: Neurotoxicity against Mus musculus MFI (mouse) assessed as excitation at 50 mg/kg, ip; format: toxicity, organism-based; design: dose 50 mg/kg, route intraperitoneal; conditions: in vivo
[10] = system: Mus musculus; assay: Neurotoxicity against Mus musculus MFI (mouse) assessed as irritability at 90 mg/kg, ip; format: toxicity, organism-based; design: dose 90 mg/kg, route intraperitoneal; conditions: in vivo
[11] = system: Mus musculus; assay: Neurotoxicity against Mus musculus MFI (mouse) assessed as effect on respiration at 50 mg/kg, ip; format: toxicity, organism-based; design: dose 50 mg/kg, route intraperitoneal; conditions: in vivo
[12] = system: Mus musculus; assay: Neurotoxicity against Mus musculus MFI (mouse) assessed as hair erection at 135 mg/kg, ip; format: toxicity, organism-based; design: dose 135 mg/kg, route intraperitoneal; conditions: in vivo
[13] = system: Mus musculus; assay: Neurotoxicity against Mus musculus MFI (mouse) assessed as effect on respiration at 90 mg/kg, ip; format: toxicity, organism-based; design: dose 90 mg/kg, route intraperitoneal; conditions: in vivo
[14] = system: Mus musculus; assay: Neurotoxicity against Mus musculus MFI (mouse) assessed as eye protrusion at 50 mg/kg, ip; format: toxicity, organism-based; design: dose 50 mg/kg, route intraperitoneal; conditions: in vivo
[15] = system: Mus musculus; assay: Neurotoxicity in ip dosed Mus musculus MFI (mouse); format: toxicity, organism-based; conditions: in vivo
[16] = system: Mus musculus; assay: Neurotoxicity against Mus musculus MFI (mouse) assessed as irritability at 135 mg/kg, ip; format: toxicity, organism-based; design: dose 135 mg/kg, route intraperitoneal; conditions: in vivo
[17] = system: Mus musculus; assay: Neurotoxicity against Mus musculus MFI (mouse) assessed as tremors at 135 mg/kg, ip; format: toxicity, organism-based; design: dose 135 mg/kg, route intraperitoneal; conditions: in vivo
[18] = system: Mus musculus; assay: Neurotoxicity against Mus musculus MFI (mouse) assessed as eye protrusion at 135 mg/kg, ip; format: toxicity, organism-based; design: dose 135 mg/kg, route intraperitoneal; conditions: in vivo
[19] = system: Mus musculus; assay: […] activity in Mus musculus MFI (mouse) assessed as inhibition of PBQ-induced writhing at 135 mg/kg, ip administered 1.5 hr prior to PBQ-challenge measured after 10 min relative to aspirin; format: functional; conditions: route intraperitoneal
[20] = system: Mus musculus; assay: Neurotoxicity against Mus musculus MFI (mouse) assessed as tail erection at 135 mg/kg, ip; format: toxicity, organism-based; design: dose 135 mg/kg, route intraperitoneal; conditions: in vivo
[21] = system: Mus musculus; assay: Neurotoxicity against Mus musculus MFI (mouse) assessed as skeletal muscle incoordination at 90 mg/kg, ip; format: toxicity, organism-based, Muscle tissue; design: dose 90 mg/kg, route intraperitoneal; conditions: in vivo
[22] = system: Mus musculus; assay: […] activity in Mus musculus MFI (mouse) assessed as inhibition of PBQ-induced writhing at 90 mg/kg, ip administered 1.5 hr prior to PBQ-challenge measured after 10 min relative to aspirin; format: functional; conditions: route intraperitoneal
[23] = system: Mus musculus; assay: Neurotoxicity against Mus musculus MFI (mouse) assessed as epilepsy at 50 mg/kg, ip; format: toxicity, organism-based; design: dose 50 mg/kg, route intraperitoneal; conditions: in vivo
[24] = system: Mus musculus; assay: Neurotoxicity against Mus musculus MFI (mouse) assessed as tremors at 90 mg/kg, ip; format: toxicity, organism-based; design: dose 90 mg/kg, route intraperitoneal; conditions: in vivo
[25] = system: Mus musculus; assay: Neurotoxicity against Mus musculus MFI (mouse) assessed as excitation at 90 mg/kg, ip; format: toxicity, organism-based; design: dose 90 mg/kg, route intraperitoneal; conditions: in vivo
[26] = system: Mus musculus; assay: Neurotoxicity against Mus musculus MFI (mouse) assessed as eye protrusion at 90 mg/kg, ip; format: toxicity, organism-based; design: dose 90 mg/kg, route intraperitoneal; conditions: in vivo
[27] = system: Mus musculus; assay: Neurotoxicity against Mus musculus MFI (mouse) assessed as tremors at 50 mg/kg, ip; format: toxicity, organism-based; design: dose 50 mg/kg, route intraperitoneal; conditions: in vivo
[28] = system: Mus musculus; assay: Neurotoxicity against Mus musculus MFI (mouse) assessed as irritability at 50 mg/kg, ip; format: toxicity, organism-based; design: dose 50 mg/kg, route intraperitoneal; conditions: in vivo
[29] = system: Mus musculus; assay: Neurotoxicity against Mus musculus MFI (mouse) assessed as hair erection at 90 mg/kg, ip; format: toxicity, organism-based; design: dose 90 mg/kg, route intraperitoneal; conditions: in vivo
[30] = system: Mus musculus; assay: Neurotoxicity against Mus musculus MFI (mouse) assessed as effect on respiration at 135 mg/kg, ip; format: toxicity, organism-based; design: dose 135 mg/kg, route intraperitoneal; conditions: in vivo
[31] = system: Mus musculus; assay: Neurotoxicity against Mus musculus MFI (mouse) assessed as hair erection at 50 mg/kg, ip; format: toxicity, organism-based; design: dose 50 mg/kg, route intraperitoneal; conditions: in vivo
[32] = system: Mus musculus; assay: Neurotoxicity against Mus musculus MFI (mouse) assessed as excitation at 135 mg/kg, ip; format: toxicity, organism-based; design: dose 135 mg/kg, route intraperitoneal; conditions: in vivo
[33] = system: Mus musculus; assay: Neurotoxicity against Mus musculus MFI (mouse) assessed as tail erection at 90 mg/kg, ip; format: toxicity, organism-based; design: dose 90 mg/kg, route intraperitoneal; conditions: in vivo
[34] = system: Mus musculus; assay: Neurotoxicity against Mus musculus MFI (mouse) assessed as tail erection at 50 mg/kg, ip; format: toxicity, organism-based; design: dose 50 mg/kg, route intraperitoneal; conditions: in vivo
[35] = system: Mus musculus; assay: Neurotoxicity against Mus musculus MFI (mouse) assessed as skeletal muscle incoordination at 135 mg/kg, ip; format: toxicity, organism-based, Muscle tissue; design: dose 135 mg/kg, route intraperitoneal; conditions: in vivo

CC(COc1cc(Cl)ccc1Cl)N1CCN(C)CC1.O=C(O)C(=O)O (racemic)
60 mg/kg: minimal effective dose [1]
100%: inhibition in vivo at 135 mg/kg [19]
Toxic: Activity [3] | Activity [4] | Activity [5] | Activity [6] | Activity [7] | Activity [8] | Activity [9] | Activity [10] | Activity [11] | Activity [12] | Activity [13] | Activity [14] | Activity [16] | Activity [17] | Activity [18] | Activity [20] | Activity [21] | Activity [23] | Activity [24] | Activity [25] | Activity [26] | Activity [27] | Activity [28] | Activity [29] | Activity [30] | Activity [31] | Activity [32] | Activity [33] | Activity [34] | Activity [35]
50%: inhibition in vivo at 50 mg/kg [2]
62.5%: inhibition in vivo at 90 mg/kg [22]
90 mg/kg: MTC [15]
